Among the test systems are CCRF-CEM leukemia; A549 NSCLC; K-562 leukemia; SK-MEL-2 melanoma; SNB-19 CNS; KM12 colon; HCT-116 colon; HT29 colon; COLO 205 colon; LOX IMVI melanoma.
What all share (assay): NCI anticancer screen, dose series, 48 h

Molecules are shown by their SMILES.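 Growth conditions: 96-well plates. Treatment: test compound, 48 hours, 5 concentrations. Analysis: linear interpolation between bracketing concentrations; unreached endpoints set to highest concentration. GI50 is the concentration that inhibits growth by half. TGI denotes the concentration required for complete inhibition of growth.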

`COc1cc([N+](=O)[O-])c2ncccc2c1[N+](=O)[O-]`: the GI50 in the test with CCRF-CEM leukemia is 3.44 µM; in the test with A549 NSCLC it was 17.8 µM; in the test with K-562 leukemia, 3.97 µM; in the test on SK-MEL-2 melanoma it was 4.17 µM; with SNB-19 CNS, 15.9 µM; with KM12 colon it was 2.98 µM. The GI50 is 3.47 µM in the test on HCT-116 colon, 2.28 µM in the test with HT29 colon, 10.1 µM in the test on COLO 205 colon and 2.31 µM in the test with LOX IMVI melanoma. Further, the TGI with CCRF-CEM leukemia is 28.6 µM; in the test with A549 NSCLC it was 34.5 µM; with K-562 leukemia it was over 100 µM; in the test with SK-MEL-2 melanoma, 12.3 µM; in the test with SNB-19 CNS, 30.8 µM; with KM12 colon, 10.5 µM. Moreover, the TGI was 11.9 µM in the test on HCT-116 colon, 5.52 µM in the test with HT29 colon, 22.9 µM in the test on COLO 205 colon and 8.29 µM in the test with LOX IMVI melanoma.

On to `Cc1c(C(=O)CSc2nc3ccccc3[nH]2)c(=O)n(-c2ccccc2)n1C`, for which the TGI with CCRF-CEM leukemia, with A549 NSCLC, in the test on SK-MEL-2 melanoma, in the test on SNB-19 CNS, with KM12 colon and in the test on HCT-116 colon was over 100 µM throughout. Also, the TGI in the test with HT29 colon, with COLO 205 colon and in the test with LOX IMVI melanoma was over 100 µM throughout.

Take `CNC(=O)CN(CC(N)=O)C(N)=O`: the TGI in the test with CCRF-CEM leukemia, with A549 NSCLC, in the test on K-562 leukemia, in the test with SK-MEL-2 melanoma, with SNB-19 CNS and in the test on KM12 colon was over 100 µM throughout. Moreover, the TGI in the test with HT29 colon, with COLO 205 colon and in the test on LOX IMVI melanoma was over 100 µM in each case.

On to `CC1=NN(C(=O)c2ccccc2O)C(=O)/C1=C/c1cccc([N+](=O)[O-])c1`, for which the TGI was over 100 µM with CCRF-CEM leukemia; over 100 µM in the test with A549 NSCLC; over 100 µM with K-562 leukemia; over 21.9 µM in the test on SK-MEL-2 melanoma; over 100 µM in the test on SNB-19 CNS; over 100 µM in the test on KM12 colon. Also, the TGI in the test with HCT-116 colon is over 67.7 µM; in the test on HT29 colon it was over 100 µM; in the test with COLO 205 colon, over 100 µM; in the test with LOX IMVI melanoma, over 78.5 µM.

On to `CC1CC[C@]2(C(=O)O)CCC3(C)C(=CCC4[C@@]5(C)CC[C@H](OS(=O)(=O)c6ccccc6)C(C)(C)C5CC[C@]43C)[C@@H]2[C@H]1C` (some centres undefined), for which the TGI with CCRF-CEM leukemia, in the test on A549 NSCLC, in the test on K-562 leukemia, with SK-MEL-2 melanoma, with SNB-19 CNS and with KM12 colon was over 100 µM throughout. For the same compound, the TGI in the test with HCT-116 colon, in the test with HT29 colon, in the test with COLO 205 colon and in the test on LOX IMVI melanoma was over 100 µM throughout.

Take `N=C1C=C(N)C(=O)c2[nH]c(=O)ccc21`: the TGI was 5.81 µM with CCRF-CEM leukemia; 4.99 µM in the test on A549 NSCLC; 4.4 µM in the test on K-562 leukemia; 4.48 µM with SK-MEL-2 melanoma; 3.86 µM in the test on SNB-19 CNS; 3.21 µM with KM12 colon. Further, the TGI worked out at 2.48 µM in the test with HCT-116 colon, 4.5 µM with HT29 colon, 3.14 µM with COLO 205 colon and 3.69 µM in the test on LOX IMVI melanoma.

With `Nc1[nH]c(=O)ncc1CO`, the GI50 in the test with CCRF-CEM leukemia, with A549 NSCLC, in the test on K-562 leukemia, in the test on SK-MEL-2 melanoma, in the test on SNB-19 CNS and with KM12 colon was over 100 µM in each case. In addition, the GI50 in the test on HCT-116 colon, in the test on HT29 colon, with COLO 205 colon and with LOX IMVI melanoma was over 100 µM in each case. Besides, the TGI in the test on CCRF-CEM leukemia, with A549 NSCLC, in the test with K-562 leukemia, in the test on SK-MEL-2 melanoma, with SNB-19 CNS and with KM12 colon was over 100 µM in each case. Further, the TGI in the test with HCT-116 colon, in the test on HT29 colon, in the test with COLO 205 colon and in the test with LOX IMVI melanoma was over 100 µM in each case.

Consider `COc1ccc(C(O)CC(O)(C(F)(F)F)C(F)(F)F)cc1` (centres undefined), for which the TGI is 45.7 µM in the test with CCRF-CEM leukemia; over 100 µM in the test with A549 NSCLC; 53.6 µM in the test with K-562 leukemia; 40.8 µM with SK-MEL-2 melanoma; over 100 µM with SNB-19 CNS; over 100 µM in the test with KM12 colon. For the same compound, the TGI in the test with HCT-116 colon was 38.1 µM; in the test on HT29 colon, over 100 µM; in the test on COLO 205 colon it was 33.8 µM; in the test on LOX IMVI melanoma, 36 µM.

Take `COc1ccc(OC)c2c3c(ccc12)C(c1ccccc1)OC3=O` (centres undefined): the TGI in the test on CCRF-CEM leukemia, in the test with A549 NSCLC, in the test on K-562 leukemia, in the test with SK-MEL-2 melanoma, in the test with SNB-19 CNS and in the test on KM12 colon was over 100 µM in each case. For the same compound, the TGI in the test with HCT-116 colon, in the test with HT29 colon, in the test with COLO 205 colon and in the test with LOX IMVI melanoma was over 100 µM in each case.

Turning to `Cc1nc(N)nc2ccccc12`, the TGI with CCRF-CEM leukemia, in the test with A549 NSCLC, in the test with K-562 leukemia, in the test with SK-MEL-2 melanoma, in the test on SNB-19 CNS and in the test with KM12 colon was over 100 µM throughout. The TGI with HCT-116 colon, with HT29 colon, with COLO 205 colon and with LOX IMVI melanoma was over 100 µM each time. The GI50 in the test with COLO 205 colon is over 100 µM.

With `COc1nc(NC2OC(COC(C)=O)C(OC(C)=O)C(OC(C)=O)C2OC(C)=O)c(-c2csc(N)n2)c(=O)n1C` (centres undefined), the TGI in the test with CCRF-CEM leukemia was over 100 µM; in the test on A549 NSCLC, over 100 µM; in the test on K-562 leukemia, over 100 µM; with SK-MEL-2 melanoma, 90.2 µM; in the test with SNB-19 CNS it was over 100 µM; in the test on KM12 colon, over 100 µM. For the same compound, the TGI in the test on HCT-116 colon, in the test on HT29 colon, in the test on COLO 205 colon and in the test with LOX IMVI melanoma was over 100 µM throughout.

As to `CC(NC(=O)c1ccccc1)(C(=O)O)C(=O)O`, the TGI in the test on CCRF-CEM leukemia, in the test on A549 NSCLC, in the test on K-562 leukemia, with SK-MEL-2 melanoma, in the test on SNB-19 CNS and in the test with KM12 colon was over 100 µM each time. For the same compound, the TGI in the test on HCT-116 colon, in the test on HT29 colon, with COLO 205 colon and in the test with LOX IMVI melanoma was over 100 µM throughout.

Values taken from PubChem BioAssay (NCI).
